# Like-named read-outs stand apart in the source and are kept apart here.
# How the values were obtained:
# [1] = biological target: T1, 5-HT1A receptor (Sus scrofa, UniProt A0A4X1UTF5); experiment: radioligand binding, porcine cortical membranes, [^3H]8-OH-DPAT and [^3H]WAY 100635
# T1 construct: membrane preparations from porcine cortical material; from tissue; host or cells: porcine cerebral cortex membranes
# T1 sequence (A0A4X1UTF5 1-422): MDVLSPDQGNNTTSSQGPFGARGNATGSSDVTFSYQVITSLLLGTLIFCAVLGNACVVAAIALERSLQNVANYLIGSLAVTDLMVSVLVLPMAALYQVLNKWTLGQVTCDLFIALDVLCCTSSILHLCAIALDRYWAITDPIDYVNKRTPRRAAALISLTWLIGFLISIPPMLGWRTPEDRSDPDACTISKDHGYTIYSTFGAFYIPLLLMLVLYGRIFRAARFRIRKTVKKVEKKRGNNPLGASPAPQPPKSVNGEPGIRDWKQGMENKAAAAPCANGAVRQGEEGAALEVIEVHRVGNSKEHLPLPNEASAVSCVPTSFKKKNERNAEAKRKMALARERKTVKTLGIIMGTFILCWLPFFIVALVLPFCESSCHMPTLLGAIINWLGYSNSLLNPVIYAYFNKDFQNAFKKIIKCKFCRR
# [2] = biological target: T2, 5-HT2 receptor (Sus scrofa, UniProt P50129); experiment: radioligand binding, porcine cortical membranes, [^3H]ketanserin
# T2 construct: membrane preparations from porcine cortical material; from tissue; host or cells: porcine cerebral cortex membranes
# [3] = biological target: dopamine D2short receptor (Homo sapiens, UniProt P14416); experiment: [^35S]GTPγS-incorporation assay, intrinsic activity
# [4] = biological target: T3, human D2short receptor (Homo sapiens, UniProt P14416); experiment: radioligand binding with [^3H]spiperone, D2short; conditions: read-out: Ki D2sh
# T3 construct: expressed in transfected cells; host or cells: Chinese hamster ovary (CHO) cells, membranes
# Method: (§1) For the determination of binding affinity to the receptors of the dopamine D2 family membranes were established carrying the human D2long, D2short, D3 or D4.4 receptor subtype expressed in Chinese hamster ovary cell lines. In principle, the binding experiments started when incubating an appropriate amount of membrane with the radioligand [^3H]spiperone and the particular test compounds diluted in a wide range of different concentrations from subnanomolar up to micromolar.
# [5] = biological target: T4, human D4.4 receptor (Homo sapiens, UniProt P21917); experiment: radioligand binding with [^3H]spiperone, D4.4
# T4 construct: expressed in transfected cells; host or cells: Chinese hamster ovary (CHO) cells, membranes
# T4 sequence (P21917 1-419): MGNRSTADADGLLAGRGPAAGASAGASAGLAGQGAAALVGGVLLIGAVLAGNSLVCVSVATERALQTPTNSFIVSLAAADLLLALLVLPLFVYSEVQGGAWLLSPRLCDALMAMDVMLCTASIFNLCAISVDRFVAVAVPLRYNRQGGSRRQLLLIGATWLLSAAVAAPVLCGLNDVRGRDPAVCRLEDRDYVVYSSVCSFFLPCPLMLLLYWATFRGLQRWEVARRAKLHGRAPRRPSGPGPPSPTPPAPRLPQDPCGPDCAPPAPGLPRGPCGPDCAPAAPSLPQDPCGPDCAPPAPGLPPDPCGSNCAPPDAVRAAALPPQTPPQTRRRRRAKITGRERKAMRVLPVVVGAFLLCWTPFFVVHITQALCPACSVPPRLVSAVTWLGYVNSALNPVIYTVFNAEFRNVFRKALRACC
# Method: as §1
# [6] = biological target: T5, human D2long receptor (Homo sapiens, UniProt P14416); experiment: radioligand binding with [^3H]spiperone, D2long; conditions: read-out: Ki D2lo
# T5 construct: expressed in transfected cells; host or cells: Chinese hamster ovary (CHO) cells, membranes
# Method: as §1
# [7] = biological target: T6, human D3 receptor (Homo sapiens, UniProt P35462); experiment: radioligand binding with [^3H]spiperone, D3
# T6 construct: expressed in transfected cells; host or cells: Chinese hamster ovary (CHO) cells, membranes
# Method: as §1
# [8] = ether alkylene linker compounds
# [9] = porcine cortical membranes, [^3H]ketanserin
# [10] = read-out: D2short: [^35S]GTPγS intrinsic activity, % activity of quinpirol
# [11] = [^3H]spiperone, CHO membranes, mean of 2 to 4 experiments
# [12] = read-out: D2short: [^35S]GTPγS intrinsic activity
# T5 sequence (P14416 whole entry): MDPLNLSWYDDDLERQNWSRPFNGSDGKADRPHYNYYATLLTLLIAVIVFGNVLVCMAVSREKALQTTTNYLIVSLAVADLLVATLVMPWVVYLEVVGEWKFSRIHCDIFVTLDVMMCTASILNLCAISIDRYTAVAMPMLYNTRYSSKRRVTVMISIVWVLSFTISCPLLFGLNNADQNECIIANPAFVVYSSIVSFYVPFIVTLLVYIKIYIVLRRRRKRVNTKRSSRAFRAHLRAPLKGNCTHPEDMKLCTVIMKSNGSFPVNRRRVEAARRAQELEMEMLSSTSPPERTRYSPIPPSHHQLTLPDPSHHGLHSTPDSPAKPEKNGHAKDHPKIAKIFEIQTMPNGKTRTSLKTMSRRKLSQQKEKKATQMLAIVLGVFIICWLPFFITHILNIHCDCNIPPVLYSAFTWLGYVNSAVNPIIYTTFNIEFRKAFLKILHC
# T3 sequence (P14416 1-414 isoform P14416-2): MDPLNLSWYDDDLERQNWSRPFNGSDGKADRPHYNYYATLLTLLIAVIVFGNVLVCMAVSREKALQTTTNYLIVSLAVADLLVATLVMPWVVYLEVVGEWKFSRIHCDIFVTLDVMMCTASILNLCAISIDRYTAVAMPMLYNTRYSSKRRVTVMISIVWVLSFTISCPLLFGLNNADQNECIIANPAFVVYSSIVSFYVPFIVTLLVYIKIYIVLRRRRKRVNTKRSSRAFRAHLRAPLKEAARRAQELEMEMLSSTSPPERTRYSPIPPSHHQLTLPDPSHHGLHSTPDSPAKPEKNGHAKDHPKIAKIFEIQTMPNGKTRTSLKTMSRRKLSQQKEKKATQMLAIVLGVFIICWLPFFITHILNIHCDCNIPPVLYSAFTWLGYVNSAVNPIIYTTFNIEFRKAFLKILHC
# Sequence of dopamine D2short receptor (P14416 1-414 isoform P14416-2): as above
# T6 sequence (P35462 whole entry): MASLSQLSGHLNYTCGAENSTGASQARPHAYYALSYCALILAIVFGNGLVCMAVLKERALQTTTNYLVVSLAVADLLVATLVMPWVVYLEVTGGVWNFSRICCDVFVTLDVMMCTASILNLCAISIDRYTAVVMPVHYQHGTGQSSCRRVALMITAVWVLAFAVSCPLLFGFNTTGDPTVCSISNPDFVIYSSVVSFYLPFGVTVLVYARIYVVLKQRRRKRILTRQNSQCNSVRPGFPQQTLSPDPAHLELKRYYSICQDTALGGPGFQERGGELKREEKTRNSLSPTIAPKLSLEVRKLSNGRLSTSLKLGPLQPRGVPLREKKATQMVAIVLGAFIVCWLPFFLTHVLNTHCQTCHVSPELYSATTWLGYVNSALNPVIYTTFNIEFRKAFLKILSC
# T2 sequence (P50129 whole entry): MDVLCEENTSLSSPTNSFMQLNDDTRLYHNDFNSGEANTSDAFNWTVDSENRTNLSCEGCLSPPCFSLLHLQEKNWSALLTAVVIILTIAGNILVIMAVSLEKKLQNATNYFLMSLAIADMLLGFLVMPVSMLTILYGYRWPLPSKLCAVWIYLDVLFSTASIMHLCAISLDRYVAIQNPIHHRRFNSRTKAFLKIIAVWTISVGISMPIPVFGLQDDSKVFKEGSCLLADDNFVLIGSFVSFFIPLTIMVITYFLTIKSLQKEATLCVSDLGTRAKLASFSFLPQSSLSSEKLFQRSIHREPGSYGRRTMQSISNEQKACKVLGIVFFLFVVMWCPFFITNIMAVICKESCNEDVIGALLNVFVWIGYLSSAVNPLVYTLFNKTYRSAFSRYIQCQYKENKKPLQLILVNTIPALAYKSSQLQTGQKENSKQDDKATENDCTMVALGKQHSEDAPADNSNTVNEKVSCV
SMILES,"Ki [1, 8] [nM]",Ki ([1]; porcine cortical membranes) [nM],"Ki [2, 8] [nM]","Ki [2, 9] [nM]","Emax [3, 10] [%]","Ki [4, 11] [nM]","Ki [4, 8] [nM]",melting point [°C],"Ki [5, 11] [nM]","Ki [5, 8] [nM]","Ki [6, 11] [nM]","Ki [6, 8] [nM]","Ki [7, 11] [nM]","Ki [7, 8] [nM]","Emax [3, 12] [%]"
"Clc1cccc(N2CCN(CCCCOc3cc4ccccn4n3)CC2)c1Cl [Example E1, 2-[4-[4-(2,3-Dichlorophenyl)piperazin-1-yl]butoxy]pyrazolo[1,5-a]pyridine]",17,< 30,150,30 to 300,< 15,< 30,10,161,30 to 300,33,< 30,9.4,< 30,3.5,–
"O=Cc1c(OCCCCN2CCN(c3cccc(Cl)c3Cl)CC2)nn2ccccc12 [Example E4, 2-[4-[4-(2,3-Dichlorophenyl)piperazin-1-yl]butoxy]pyrazolo[1,5-a]pyridine-3-carbaldehyde]",–,< 30,–,30 to 300,15 to 40,< 30,–,100,< 30,–,< 30,–,< 30,–,–
"COc1ccccc1N1CCN(CCCCOc2nn3ccccc3c2C=O)CC1 [Example E5, 2-[4-[4-(2-Methoxyphenyl)piperazin-1-yl]butoxy]pyrazolo[1,5-a]pyridine-3-carbaldehyde]",–,< 30,–,301 to 3000,–,< 30,–,101,< 30,–,< 30,–,< 30,–,15 to 40
"O=Cc1c(OCCCCN2CCN(c3ccccc3Cl)CC2)nn2ccccc12 [Example E6, 2-[4-[4-(2-Chlorophenyl)piperazin-1-yl]butoxy]pyrazolo[1,5-a]pyridine-3-carbaldehyde]",–,< 30,–,301 to 3000,–,30 to 300,–,104,30 to 300,–,< 30,–,< 30,–,15 to 40
"Clc1cccc(N2CCN(CCCCOc3cccn4nccc34)CC2)c1Cl [Example E7, 4-[4-[4-(2,3-Dichlorophenyl)piperazin-1-yl]butoxy]pyrazolo[1,5-a]pyridine]",–,30 to 300,–,301 to 3000,< 15,< 30,–,91,< 30,–,< 30,–,< 30,–,–
"COc1ccccc1N1CCN(CCCCOc2cccn3nccc23)CC1 [Example E8, 4-[4-[4-(2-Methoxyphenyl)piperazin-1-yl]butoxy]pyrazolo[1,5-a]pyridine]",–,< 30,–,301 to 3000,< 15,< 30,–,74,< 30,–,< 30,–,< 30,–,–
"Clc1ccccc1N1CCN(CCCCOc2cccn3nccc23)CC1 [Example E9, 4-[4-[4-(2-Chlorophenyl)piperazin-1-yl]butoxy]pyrazolo[1,5-a]pyridine]",–,< 30,–,301 to 3000,–,< 30,–,88,< 30,–,< 30,–,< 30,–,< 15
"O=Cc1cnn2cccc(OCCCCN3CCN(c4cccc(Cl)c4Cl)CC3)c12 [Example E10, 4-[4-[4-(2,3-Dichlorophenyl)piperazin-1-yl]butoxy]pyrazolo[1,5-a]pyridine-3-carbaldehyde]",–,30 to 300,–,30 to 300,–,< 30,–,128,30 to 300,–,< 30,–,< 30,–,15 to 40
"COc1ccccc1N1CCN(CCCCOc2cccn3ncc(C=O)c23)CC1 [Example E11, 4-[4-[4-(2-Methoxyphenyl)piperazin-1-yl]butoxy]pyrazolo[1,5-a]pyridine-3-carbaldehyde]",–,< 30,–,301 to 3000,< 15,< 30,–,139,< 30,–,< 30,–,30 to 300,–,–
"O=Cc1cnn2cccc(OCCCCN3CCN(c4ccccc4Cl)CC3)c12 [Example E12, 4-[4-[4-(2-Chlorophenyl)piperazin-1-yl]butoxy]pyrazolo[1,5-a]pyridine-3-carbaldehyde]",–,< 30,–,301 to 3000,–,< 30,–,125,< 30,–,< 30,–,30 to 300,–,15 to 40
"Clc1ccccc1N1CCN(CCCCOc2ccn3ncc(Br)c3c2)CC1 [Example E44, 3-Bromo-5-[4-[4-(2-chlorophenyl)piperazin-1-yl]butoxy]pyrazolo[1,5-a]pyridine]",–,–,–,–,–,–,–,84,–,–,–,–,–,–,15 to 40
"Clc1ccccc1N1CCN(CCCCOc2ccn3ncc(I)c3c2)CC1 [Example E50, 5-[4-[4-(2-Chlorophenyl)piperazin-1-yl]butoxy]-3-iodo-pyrazolo[1,5-a]pyridine]",–,30 to 300,–,301 to 3000,–,–,–,94,–,–,–,–,–,–,–
"Clc1cccc(N2CCN(CCCCOc3ccn4nnnc4c3)CC2)c1Cl [Example E63, 7-[4-[4-(2,3-Dichlorophenyl)piperazin-1-yl]butoxy]tetrazolo[1,5-a]pyridine]",–,30 to 300,–,30 to 300,–,< 30,–,138,< 30,–,< 30,–,< 30,–,–
"O=[N+]([O-])c1cccc(N2CCN(CCCCOc3ccn4nccc4c3)CC2)c1 [Example E65, 5-[4-[4-(3-Nitrophenyl)piperazin-1-yl]butoxy]pyrazolo[1,5-a]pyridine]",–,–,–,–,–,–,–,73,–,–,–,–,–,–,–
"Nc1cccc(N2CCN(CCCCOc3ccn4nccc4c3)CC2)c1 [Example E66, 5-[4-[4-(3-Aminophenyl)piperazin-1-yl]butoxy]pyrazolo[1,5-a]pyridine]",–,–,–,–,–,–,–,86,–,–,–,–,–,–,–
COc1ccccc1N1CCN(CCCCOc2ccn3ncc(CO)c3c2)CC1 [Example E72],–,< 30,–,301 to 3000,15 to 40,< 30,–,–,< 30,–,< 30,–,< 30,–,–
"COc1ccccc1N1CCN(CCCCOc2ccn3ncc(C)c3c2)CC1 [Example E75, 5-[4-[4-(2-Methoxyphenyl)piperazin-1-yl]butoxy]-3-methylpyrazolo[1,5-a]pyridine]",–,< 30,–,301 to 3000,< 15,< 30,–,–,< 30,–,< 30,–,< 30,–,–
"COc1ccccc1N1CCN(CCCCOc2ccn3ncc(CN)c3c2)CC1 [Example E78, 3-Aminomethyl-5-[4-[4-(2-methoxyphenyl)piperazin-1-yl]butoxy]pyrazolo[1,5-a]pyridine]",–,< 30,–,301 to 3000,15 to 40,< 30,–,–,< 30,–,< 30,–,< 30,–,–
COc1ccccc1N1CCN(CCCCOc2ccn3ncc(CNC(C)=O)c3c2)CC1 [Example E81],–,< 30,–,301 to 3000,< 15,< 30,–,–,30 to 300,–,< 30,–,< 30,–,–
"COc1ccccc1N1CCN(CCCCOc2ccn3nnnc3c2)CC1 [Example E97, 7-[4-[4-(2-Methoxyphenyl)piperazin-1-yl]butoxy]tetrazolo[1,5-a]pyridine]",–,< 30,–,> 3000,–,< 30,–,124,< 30,–,< 30,–,< 30,–,–
"Clc1ccccc1N1CCN(CCCCOc2ccn3nnnc3c2)CC1 [Example E98, 7-[4-[4-(2-Chlorophenyl)piperazin-1-yl]butoxy]tetrazolo[1,5-a]pyridine]",–,< 30,–,301 to 3000,–,< 30,–,101,< 30,–,< 30,–,< 30,–,–
